Experimental data published in patent publication US9884012B2, “Use of PEDF-derived polypeptides for promoting muscle or tendon regeneration or arteriogenesis” (MacKay Memorial Hospital, priority 2012, dated 2018).

Key:
soleus muscle = test: bupivacaine myonecrosis model, centrally nucleated muscle fibers; format: in vivo, Sprague-Dawley rats; conditions: for centrally nucleated fibers in regenerating muscle: 14 days after the bupivacaine injection, in words; for Centrally nucleated fibers (%): day 7 after the bupivacaine injection, soleus muscle, sustained-release formulation (Bolus: bolus 29-mer)
Protocol: To ascertain the number of centrally nucleated muscle fibers, sections were stained with H&E and then photographed as described above. At least 100 stained fibers were randomly chosen from each photo. Muscle fibers were judged centrally nucleated if one or more nuclei were not located at the periphery of the fiber. The data were expressed as a % of the total number of muscle fibers counted. Results were evaluated from 6 sections per muscle section, and 10 mice at each group.
To investigate the effects of the present PEDF peptides on muscle regeneration, a rat myonecrosis model of a single injection of bupivacaine into the soleus muscle was employed. Adult 10-week-old male Sprague-Dawley rats (initial body weight=312±11 g) were anesthetized by an intraperitoneal injection of a xylazine (10 mg/kg). Then, the soleus muscle was injured by unilaterally injecting 0.5 ml bupivacaine (AstraZeneca) with a disposable syringe with a 26-gauge needle. Briefly, the needle was inserted into the distal portion of the soleus muscle and then receded longitudinally to the proximal portion accompanying evenly bupivacaine solution injection. The solution was then injected throughout the entire length of the muscle as the needle was slowly withdrawn.
After bupivacaine injection, rats were divided equally (n=10/group) into four experimental groups and treated as follows. In the blank control group, the mice were treated with 50 μl of blank alginate gel. In the treatments groups, the mice received 50 μl of the sustained-release formulation (29-mer or 20-mer). The mice in the bolus control group received the bolus formulation (29-mer). Treatments were applied by way of a single intramuscular injection to the soleus muscle immediately after the bupivacaine perfusion.
In the process of muscle regeneration, newly generated muscle fibers typically contain central located nuclei. […] Statistical analysis regarding the percentage of centrally nucleated fibers was performed at day 7 after the bupivacaine injection, and the results were summarized in Table 6.

[1] = test system: bone marrow-derived mesenchymal stem cells (BM-MSCs); test: BM-MSC differentiation into tenocytes, tenomodulin (TNMD) gene expression by RT-PCR; format: cell-based, Sprague-Dawley rats; conditions: 50 nM peptide, 1% FBS-DMEM, 24 or 48 hours, in words
Protocol: Primary rat BM-MSCs were isolated from femur of male Sprague-Dawley rats (300-450 g). Femora were aseptically removed and dissected free of adhering tissues, and then the marrow cavities were flushed by injection of DMEM medium. Collected bone marrow cells were incubated in a 100×15-mm Petri dish in DMEM medium supplemented with 10% FBS, 100 U/ml penicillin, and 100 μg/ml streptomycin for 2 weeks in 5% CO2 at 37° C. The medium was replaced every 2 to 3 days. For passage, near-confluent cells were detached by 0.25% trypsin and then 2×10^5 subcultured cells were seeded in a well of 6-well plate and further cultured in the 10% FBS-DMEM. Before treatment, cells were starved for 12 hours in DMEM supplemented with 1% FBS followed by treatment with 50 nM PEDF-derived peptide (29-mer or 20-mer) in fresh 1% FBS-DMEM for either 24 or 48 hours.
The total RNA was extracted from cells using TRIzol and treated with RNase-free DNase I (Qiagen, Santa Clarita, Calif.) to remove genomic DNA and then purified with an RNA purification kit (Dynabeads). […]
The PCR products were electrophoresed in a 2% agarose gel containing ethidium bromide and visualized by UV illumination. The intensities of the PCR products were quantified densitometrically using a FUJI LAS-3000 system and Multi Gauge Ver. […]

aortic ring explants = test: rat aortic ring sprouting assay (ex vivo neovessel sprouting); format: cell-based; conditions: aortic rings cultured with PEDF peptide, in words

Sequence	centrally nucleated fibers in regenerating muscle (soleus muscle)	Centrally nucleated fibers (%) (soleus muscle)	tenocyte differentiation of BM-MSCs (TNMD gene expression) [1]	neovessel phenotype by dual immunofluorescence (α-SMA / isolectin B4) (aortic ring explants)
SLGAEQRTESIIHRALYYDL [20-mer, synthetic peptide corresponding to residues 93-112 of human PEDF]	much less centrally nucleated fibers	63.3 ± 7.4%	effective inducer of tenocyte-like cell differentiation	displayed arteriole phenotype with a SMC coating
SLGAEQRTESIIHRALYYDLISSPDIHGT [29-mer, synthetic peptide corresponding to residues 93-121 of human PEDF]	much less centrally nucleated fibers	75.2 ± 7.0%	effective inducer of tenocyte-like cell differentiation	displayed arteriole phenotype with a SMC coating
